Activity calls are given as the source filed them.
Experiments:
[1] = biological target: T1, Beta-adrenergic receptor kinase 1 (Homo sapiens, UniProt P25098); test: Second cherry pick EC50 of compounds blocking aptamer binding to bead-bound GRK2 by flow cytometry, biochemical (AID 504815)
[2] = biological target: T1, Beta-adrenergic receptor kinase 1; test: aptamer displacement from bead-bound GRK2 – biochemical, cherry pick 1, bead flow cytometry, dose response (AID 504500)
[3] = biological target: T2, Carboxy-terminal domain RNA polymerase II polypeptide A small phosphatase 1 (Homo sapiens, UniProt Q9GZU7); test: CTDSP1 inhibitors, concentration-response, biochemical, absorbance readout, ultra-high-throughput screen actives (AID 540297); assay type: functional
T2 sequence (Q9GZU7 whole entry): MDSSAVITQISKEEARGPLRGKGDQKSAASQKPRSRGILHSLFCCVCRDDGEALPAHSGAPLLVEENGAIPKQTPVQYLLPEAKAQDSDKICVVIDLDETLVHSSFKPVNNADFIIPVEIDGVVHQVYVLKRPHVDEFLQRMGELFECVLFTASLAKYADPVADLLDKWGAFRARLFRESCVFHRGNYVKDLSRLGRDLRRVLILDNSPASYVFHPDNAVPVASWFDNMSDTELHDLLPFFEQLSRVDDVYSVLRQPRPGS

[4] = fluconazole-exposed Candida albicans growth modulators – fluorescence, retest, confirmation (AID 2467); assay type: functional, cell-based
HEK293 [5] = test: SAR Analysis of small molecule inhibitors of T-cell specific antigen receptor-induced NF-kB activation in a HEK-293T cell line using a luminescence assay - Set 2. [Related pubchem assays (depositor defined):AID435003, AID435012, AID489026]; assay type: functional, cell-based; conditions: Homo sapiens
[6] = biological target: SWI/SNF-related matrix-associated actin-dependent regulator of chromatin subfamily A member 2 (Homo sapiens, UniProt P51531); test: Luminescence-based cell-based high throughput dose response assay to identify activators of the function of SWI/SNF related, matrix associated, actin dependent regulator of chromatin, subfamily a, member 2 (SMARCA2, BRM).; assay type: functional
Chain of SWI/SNF-related matrix-associated actin-dependent regulator of chromatin subfamily A member 2 (P51531 whole entry): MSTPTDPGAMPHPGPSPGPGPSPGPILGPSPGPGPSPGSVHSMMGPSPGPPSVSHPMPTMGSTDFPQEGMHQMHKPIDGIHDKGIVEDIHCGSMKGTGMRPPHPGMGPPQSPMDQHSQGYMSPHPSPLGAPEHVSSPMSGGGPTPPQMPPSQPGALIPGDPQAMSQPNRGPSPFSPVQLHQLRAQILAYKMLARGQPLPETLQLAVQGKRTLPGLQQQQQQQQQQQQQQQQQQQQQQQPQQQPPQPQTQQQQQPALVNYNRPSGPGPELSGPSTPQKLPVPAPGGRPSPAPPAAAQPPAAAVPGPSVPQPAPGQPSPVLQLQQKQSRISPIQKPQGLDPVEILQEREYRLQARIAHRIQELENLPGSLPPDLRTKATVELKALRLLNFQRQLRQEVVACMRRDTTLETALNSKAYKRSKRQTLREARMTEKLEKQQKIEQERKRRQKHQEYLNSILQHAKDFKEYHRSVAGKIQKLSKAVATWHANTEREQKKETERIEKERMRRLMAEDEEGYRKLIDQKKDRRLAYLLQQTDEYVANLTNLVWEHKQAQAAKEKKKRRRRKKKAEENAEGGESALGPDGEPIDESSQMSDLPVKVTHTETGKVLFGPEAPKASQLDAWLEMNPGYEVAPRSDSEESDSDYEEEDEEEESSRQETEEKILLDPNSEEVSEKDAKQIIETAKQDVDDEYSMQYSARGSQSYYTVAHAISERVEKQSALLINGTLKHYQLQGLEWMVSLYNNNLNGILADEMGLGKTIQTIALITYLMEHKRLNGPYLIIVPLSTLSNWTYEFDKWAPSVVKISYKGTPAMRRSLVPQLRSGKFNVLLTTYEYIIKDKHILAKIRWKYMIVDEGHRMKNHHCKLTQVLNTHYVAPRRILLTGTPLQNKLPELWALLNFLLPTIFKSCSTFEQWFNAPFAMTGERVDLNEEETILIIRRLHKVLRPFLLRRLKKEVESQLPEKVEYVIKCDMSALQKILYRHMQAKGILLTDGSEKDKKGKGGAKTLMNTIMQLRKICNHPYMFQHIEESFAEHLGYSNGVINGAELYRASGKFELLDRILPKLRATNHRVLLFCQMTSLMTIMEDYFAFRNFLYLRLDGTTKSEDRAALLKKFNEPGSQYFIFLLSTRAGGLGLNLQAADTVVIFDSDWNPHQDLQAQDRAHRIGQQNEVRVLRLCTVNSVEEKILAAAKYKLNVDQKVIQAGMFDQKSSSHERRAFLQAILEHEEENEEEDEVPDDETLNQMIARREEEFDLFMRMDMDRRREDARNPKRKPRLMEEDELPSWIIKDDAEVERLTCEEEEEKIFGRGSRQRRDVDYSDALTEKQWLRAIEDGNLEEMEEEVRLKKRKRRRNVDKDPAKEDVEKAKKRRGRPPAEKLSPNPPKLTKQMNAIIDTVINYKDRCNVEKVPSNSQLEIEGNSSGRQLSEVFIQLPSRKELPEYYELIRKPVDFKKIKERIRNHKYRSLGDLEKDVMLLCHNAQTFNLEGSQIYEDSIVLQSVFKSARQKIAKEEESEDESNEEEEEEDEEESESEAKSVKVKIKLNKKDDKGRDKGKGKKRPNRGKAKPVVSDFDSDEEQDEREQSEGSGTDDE

[7] = biological target: T3, Sphingosine 1-phosphate receptor 4 (Homo sapiens, UniProt O95977); test: Fluorescence dose response cell-based high throughput screening assay for antagonists of the Sphingosine 1-Phosphate Receptor 4 (S1P4). [Related pubchem assays: 1524 (Confirmation in triplicates.), 1510 (Primary screen.)]; assay type: functional
T3 sequence (O95977 whole entry): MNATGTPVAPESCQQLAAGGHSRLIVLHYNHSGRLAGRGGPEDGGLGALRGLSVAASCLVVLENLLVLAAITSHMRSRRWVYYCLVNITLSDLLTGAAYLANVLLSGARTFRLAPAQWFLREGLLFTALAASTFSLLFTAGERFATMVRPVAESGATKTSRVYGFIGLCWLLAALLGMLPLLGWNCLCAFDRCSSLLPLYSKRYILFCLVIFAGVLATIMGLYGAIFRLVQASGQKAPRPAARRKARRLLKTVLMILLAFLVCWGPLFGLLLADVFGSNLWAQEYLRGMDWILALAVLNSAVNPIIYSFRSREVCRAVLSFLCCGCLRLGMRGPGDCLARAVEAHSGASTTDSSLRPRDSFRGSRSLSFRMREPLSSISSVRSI

Jurkat = test: SAR Analysis of small molecule inhibitors of T-cell specific antigen receptor-induced NF-kB activation in a Jurkat cell line using a luminescence assay - Set 2. [Related pubchem assays (depositor defined):AID435003, AID435012, AID465]; assay type: functional, cell-based; conditions: Homo sapiens
[8] = nonselective StAR promoter luciferase inhibitors – cell-based, luminescence, luciferase reporter, counter-screen for LRH-1 inverse agonist project, dose response (AID 651969); assay type: functional
[9] = NIH-3T3 fibroblast cytotoxicity, dose response, cytotoxicity control, cell-based, fluorescence, Alamar Blue, secondary assay (AID 2327); assay type: functional;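 also: NIH-3T3 mouse fibroblasts cultured with fluconazole at 8 µg/mL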
[10] = Counterscreen for activators of the function of SWI/SNF related, matrix associated, actin dependent regulator of chromatin, subfamily a, member 2 (SMARCA2, BRM): Luminescence-based cell-based high throughput dose response assay to identify non-selective compounds using the VP16 reporter assay.; assay type: functional
[11] = biological target: T4, Microphthalmia-associated transcription factor (Homo sapiens, UniProt O75030); test: reducers of TRPM1 reporter luminescence, concentration series – cell-based, SK-MEL-5, cherry-picked, set 3, MITF inhibitor project, dose response (AID 493073); assay type: functional;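 also: SK-MEL-5 melanoma cells with luciferase driven by the MITF target TRPM1 promoter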
T4 sequence (O75030 whole entry): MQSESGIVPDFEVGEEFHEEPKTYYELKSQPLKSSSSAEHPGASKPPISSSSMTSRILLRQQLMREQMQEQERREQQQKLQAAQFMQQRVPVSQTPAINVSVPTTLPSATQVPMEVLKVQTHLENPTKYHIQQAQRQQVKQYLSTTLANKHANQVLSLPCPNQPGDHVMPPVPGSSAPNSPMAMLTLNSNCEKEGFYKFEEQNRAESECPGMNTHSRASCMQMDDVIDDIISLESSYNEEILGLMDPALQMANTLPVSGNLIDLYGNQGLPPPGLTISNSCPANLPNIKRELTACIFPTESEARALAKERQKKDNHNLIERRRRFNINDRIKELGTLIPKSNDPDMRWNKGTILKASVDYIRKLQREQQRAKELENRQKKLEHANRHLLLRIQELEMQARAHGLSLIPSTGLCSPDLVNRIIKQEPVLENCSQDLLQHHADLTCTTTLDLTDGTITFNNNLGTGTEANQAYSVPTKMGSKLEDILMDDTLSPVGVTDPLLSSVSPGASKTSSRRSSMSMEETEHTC

Steroidogenic factor 1 = Steroidogenic factor 1 (Homo sapiens, UniProt Q13285); test: Counterscreen for inverse agonists of the liver receptor homolog-1 (LRH-1; NR5A2): Luminescence-based cell-based high throughput dose response assay to identify inverse agonists of the Steroidogenic Factor 1 Nuclear Receptor (SF1; NR5A1).; assay type: functional
Chain of Steroidogenic factor 1 (Q13285 whole entry): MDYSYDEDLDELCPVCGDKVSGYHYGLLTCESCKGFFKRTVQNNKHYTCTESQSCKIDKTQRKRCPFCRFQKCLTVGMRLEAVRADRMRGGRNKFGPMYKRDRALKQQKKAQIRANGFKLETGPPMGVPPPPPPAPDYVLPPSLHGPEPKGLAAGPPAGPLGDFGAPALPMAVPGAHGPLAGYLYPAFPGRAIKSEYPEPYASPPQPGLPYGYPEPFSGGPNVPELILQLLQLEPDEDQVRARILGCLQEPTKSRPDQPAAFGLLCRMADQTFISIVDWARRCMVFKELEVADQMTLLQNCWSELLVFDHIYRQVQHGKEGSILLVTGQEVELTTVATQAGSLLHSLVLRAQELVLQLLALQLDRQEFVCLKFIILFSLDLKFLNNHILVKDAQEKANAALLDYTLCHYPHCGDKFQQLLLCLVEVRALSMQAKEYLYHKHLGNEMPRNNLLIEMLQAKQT

HEK293 [12] = test: HEK293T cell viability loss, resazurin readout – resazurin fluorescence, cytotoxicity control for NF-kB activator project, SAR follow-up (AID 493251); assay type: functional, cell-based; conditions: Homo sapiens
Paired box protein Pax-8 = Paired box protein Pax-8 (Homo sapiens, UniProt Q06710); test: PAX8 transcriptional activity inhibition in RMG-I – RMG-I cells, luciferase, cherry-pick, dose response (AID 687027); assay type: functional, cell-based;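 also: luciferase reporter driven by Pax8 target thyroperoxidase promoter measured by SteadyGlo luminescence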
Chain of Paired box protein Pax-8 (Q06710 whole entry): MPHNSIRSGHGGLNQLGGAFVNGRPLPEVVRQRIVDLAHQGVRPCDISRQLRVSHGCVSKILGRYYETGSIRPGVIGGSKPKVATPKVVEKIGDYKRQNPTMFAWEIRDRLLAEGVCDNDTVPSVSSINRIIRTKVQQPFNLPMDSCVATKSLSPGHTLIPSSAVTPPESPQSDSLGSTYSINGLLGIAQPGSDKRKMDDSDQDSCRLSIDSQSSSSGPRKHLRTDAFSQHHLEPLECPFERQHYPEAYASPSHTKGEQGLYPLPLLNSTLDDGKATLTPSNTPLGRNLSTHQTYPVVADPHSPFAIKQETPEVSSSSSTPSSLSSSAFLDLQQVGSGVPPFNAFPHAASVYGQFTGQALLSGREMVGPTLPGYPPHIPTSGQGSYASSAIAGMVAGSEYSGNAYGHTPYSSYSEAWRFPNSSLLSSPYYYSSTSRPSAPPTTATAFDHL

[13] = biological target: Nuclear receptor subfamily 5 group A member 2 (Homo sapiens, UniProt O00482); assay type: functional, cell-based;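 also: HEK293T cells transfected with LRH-1 and a StAR promoter luciferase reporter; potency for inhibitors that lower LRH-1 driven reporter light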
Chain of Nuclear receptor subfamily 5 group A member 2 (O00482 whole entry): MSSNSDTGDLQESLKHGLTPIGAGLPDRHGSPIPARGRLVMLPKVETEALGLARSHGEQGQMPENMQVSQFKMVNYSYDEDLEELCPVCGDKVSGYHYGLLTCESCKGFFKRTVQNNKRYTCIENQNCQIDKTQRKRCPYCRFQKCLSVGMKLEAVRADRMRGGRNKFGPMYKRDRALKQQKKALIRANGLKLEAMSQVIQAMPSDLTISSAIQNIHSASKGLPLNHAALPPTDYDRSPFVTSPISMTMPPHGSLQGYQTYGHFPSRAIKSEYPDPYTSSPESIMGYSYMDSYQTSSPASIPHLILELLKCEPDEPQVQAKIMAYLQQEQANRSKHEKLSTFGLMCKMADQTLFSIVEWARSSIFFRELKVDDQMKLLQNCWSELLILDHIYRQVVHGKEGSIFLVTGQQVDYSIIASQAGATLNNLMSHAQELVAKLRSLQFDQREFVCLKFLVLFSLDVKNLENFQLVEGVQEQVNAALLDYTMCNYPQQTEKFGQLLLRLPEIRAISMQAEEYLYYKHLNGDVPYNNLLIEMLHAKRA

[14] = biological target: Sphingosine 1-phosphate receptor 1 (Homo sapiens, UniProt P21453); assay type: functional;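 also: Tango beta-arrestin reporter U2OS cells stimulated with S1P near its EC80; inhibitor potency meaning antagonism of receptor activation by the natural agonist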
Chain of Sphingosine 1-phosphate receptor 1 (P21453 whole entry): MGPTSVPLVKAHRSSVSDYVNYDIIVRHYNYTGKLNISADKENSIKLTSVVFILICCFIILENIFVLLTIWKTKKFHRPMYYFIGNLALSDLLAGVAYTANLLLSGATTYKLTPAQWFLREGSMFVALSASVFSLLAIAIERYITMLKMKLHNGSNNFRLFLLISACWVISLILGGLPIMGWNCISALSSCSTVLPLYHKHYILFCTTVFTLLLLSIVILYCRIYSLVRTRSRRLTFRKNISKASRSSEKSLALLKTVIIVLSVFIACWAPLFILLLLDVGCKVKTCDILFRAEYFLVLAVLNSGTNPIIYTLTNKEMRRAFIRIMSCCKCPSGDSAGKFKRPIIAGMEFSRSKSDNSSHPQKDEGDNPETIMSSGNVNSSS

T1 sequence (P25098 whole entry): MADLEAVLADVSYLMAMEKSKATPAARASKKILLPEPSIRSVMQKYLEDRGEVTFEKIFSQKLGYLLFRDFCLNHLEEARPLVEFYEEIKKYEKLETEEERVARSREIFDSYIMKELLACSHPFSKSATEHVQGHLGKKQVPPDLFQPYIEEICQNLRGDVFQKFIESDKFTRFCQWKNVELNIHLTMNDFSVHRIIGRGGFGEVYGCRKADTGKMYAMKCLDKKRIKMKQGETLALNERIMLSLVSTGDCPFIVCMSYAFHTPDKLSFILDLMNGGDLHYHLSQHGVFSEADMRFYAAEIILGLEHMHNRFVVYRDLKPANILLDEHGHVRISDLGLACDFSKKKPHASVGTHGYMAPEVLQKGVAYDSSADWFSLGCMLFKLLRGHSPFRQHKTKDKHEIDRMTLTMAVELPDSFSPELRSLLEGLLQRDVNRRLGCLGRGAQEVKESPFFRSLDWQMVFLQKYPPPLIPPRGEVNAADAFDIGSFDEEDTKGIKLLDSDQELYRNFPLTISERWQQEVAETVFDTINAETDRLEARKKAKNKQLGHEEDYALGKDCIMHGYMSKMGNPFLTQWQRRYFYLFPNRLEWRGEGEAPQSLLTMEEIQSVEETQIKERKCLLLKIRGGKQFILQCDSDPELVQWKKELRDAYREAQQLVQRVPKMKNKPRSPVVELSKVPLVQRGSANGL

| Structure (SMILES) | EC50 [1] | EC50 [2] | IC50 [3] | EC50 [4] | IC50 (HEK293 [5]) | EC50 [6] | IC50 [7] | IC50 (Jurkat) | IC50 [8] | EC50 [9] | EC50 [10] | AC50 [11] | IC50 (Steroidogenic factor 1) | IC50 (HEK293 [12]) | AC50 (Paired box protein Pax-8) | IC50 [13] | IC50 [14] |
| --- | --- | --- | --- | --- | --- | --- | --- | --- | --- | --- | --- | --- | --- | --- | --- | --- | --- |
| CCc1cccc(NC(=O)CCS(=O)(=O)c2ccc(Br)cc2)c1 | 6.25 µM (active) | 58.3 µM (inactive) | 6.99 µM (active) |  |  |  |  |  |  |  |  |  |  |  |  |  |  |
| Cc1cc(NC(=O)c2ccc([N+](=O)[O-])o2)ccc1NC(=O)c1ccco1 |  |  |  | > 38 µM (not active) | 27 µM (inactive) | > 91.2 µM (inactive) | 1.87 µM (active) | 31.1 µM (inactive) | 35.9 µM (inactive) | 4.78 µM (inconclusive) | > 91.2 µM (inactive) | 7.8 µM (active) | 0.766 µM (active) | 42.4 µM (inactive) | 5.2 µM (active) | 35.9 µM (inactive) | 11.5 µM (not active) |
